Assay results published in patent publication US20080221203A1, “Use of Agonists and Antagonists of Beta Adrenoceptors for Treating Arterial Disease” (UNIVERSITY CATHOLIQUE DE LOUVAIN, priority 2004, published 2008).
“Also recorded” adds a separate entry of the source. Like-named read-outs stand apart in the source and are kept apart here. No end group written: not given here.

What was measured:
human beta3 AR = assay: Akt and eNOS phosphorylation in neonatal cardiac myocytes with adenoviral expression of human beta3 AR; type: cell-based, mouse; settings: agonist-mediated activation, Isoproterenol+nadolol; myocytes from C57BI6 control and cardiac eNOS transgene mice
[1] = system: human coronary microarteries; assay: Videomicroscopy of relaxation of pre-constricted, pressurized human coronary microarteries; type: cell-based; settings: for relaxation, % of the maximum ET-1-evoked contraction: agonist alone; for relaxation in the presence of bupranolol: beta1-2-3 antagonist bupranolol; for relaxation, % of the maximum ET-1-evoked contraction, in the presence of nadolol: pre-treatment with beta1-2 antagonist nadolol; for relaxation of vessels without functional endothelium, % of the maximum KCl-evoked contraction: de-endothelialized / endothelium destroyed microarteries; for relaxation of de-endothelialized vessels in the presence of nadolol: de-endothelialized microarteries; for relaxation, % of the maximum KCl-evoked contraction: pre-constricted with high (50 mmol/L) KCl, functional endothelium
Method: Vessels were cannulated with dual glass micropipettes and secured with 10-0 nylon monofilament sutures in a Plexiglas isolated organ chamber circulated with oxygenated PSS (37° C.) and placed on an inverted microscope (Axiovert S100, Zeiss, Germany) connected to a CCD camera. Microvessels were pressurized with a PSS-filled burette manometer at 60 mmHg (a pressure chosen to avoid stretch-dependent effects typically manifested at higher pressures) in a no-flow state. Digitized imaging (IONOPTIX Corporation, Milton, Mass.) allowed continuous monitoring of vessel external diameter. All experiments were carried out in the presence of cyclooxygenase inhibitor (indomethacin, 10 μmol/L). After 30-45 min equilibration, vessels were contracted with high KCl solution (PSS, 50 mmol/L KCl replacing NaCl stoechiometrically). At the maximum of contraction, vasorelaxation with Substance P (100 nmol/L) was systematically tested to assess the presence of a functional endothelium. In some experiments, the endothelium was selectively destroyed by an air bolus. All reagents were added in the bathing solution.

aortic rings = assay: Mouse aortic ring angiogenesis (new tubes formation); type: cell-based; settings: for angiogenic response in beta3 adrenoceptor deficient rings: aortic rings from beta 3-KO mice
[2] = system: human coronary microarteries; assay: Measurement of smooth muscle membrane potential of isolated human coronary microvessels; type: cell-based; settings: in the presence of NO synthase and cyclooxygenase inhibition
Method: Human right atrial and left ventricular tissue specimens obtained from patients undergoing cardiac surgery were placed in physiological saline solution (PSS) containing (mmol/L): NaCl, 120; KCl, 5.9; NaHCO3, 25; dextrose, 17.5; CaCl2, 2.5; MgCl2, 1.2; NaH2PO4, 1.2 (pH 7.4) maintained at 0-4° C., and carefully dissected to isolate microarteries. Coronary microarteries (70-170 μm diameter, 1-2 mm length), rapidly cleaned of adherent connective tissue were either kept at −80° C. until homogenization or used for functional experiments.
Microvessels were mounted in an organ bath continuously circulated (6 mL/min) with oxygenated PSS at 37° C. All experiments were performed in the presence of a NO synthase inhibitor (L-w-nitroarginine, 100 μmol/L) and indomethacin (10 μmol/L). After 60 minutes of equilibration, measurement of the smooth muscle membrane potential (Em) was made with a glass microelectrode (Clark, Electromedical instruments, type GC 120F-15) filled with 1.5M KCl. The input resistance of the microelectrodes varied between 50 and 80 MΩ. Differences in electric potential were measured with a Dagan amplifier (8100, Minneapolis, Minn., U.S.A.) and recorded. Criteria for a successful impalement were (1) an abrupt drop in voltage on entry of microelectrode into the cell, (2) stable membrane potential for at least 2 min, and (3) a sharp return to zero on withdrawal of the electrode.

[3] = system: cultured endothelial cells; assay: NO release in cultured endothelial cells; type: cell-based; settings: for NO release in the presence of L-NAME: 10 μM; for NO release: at 10 μM
Method: (§1) Human and rat cardiac coronary resistance microarteries (70-170μ diameter) were mounted in dual glass micropipettes chambers in no-flow state and constant pressure for vasomotion analysis by videomicroscopy. In addition, calcium transients and NO release were measured in cultured endothelial cells with an amperometric electrode and Fura-2 fluorescence, respectively. Phosphorylation of eNOS was measured in the same cells with phospho-specific antibodies.

eNOS = eNOS Threonine 495 phosphorylation in cultured endothelial cells (phospho-specific antibodies); type: cell-based
Method: as §1

[4] = system: coronary microarteries from mice deficient for the beta3-adrenoceptor; assay: Relaxation of coronary microarteries from mice deficient for the beta3-adrenoceptor; type: cell-based, mouse
Method: Human and rat cardiac coronary resistance microarteries (70-170μ diameter) were mounted in dual glass micropipettes chambers in no-flow state and constant pressure for vasomotion analysis by videomicroscopy. In addition, calcium transients and NO release were measured in cultured endothelial cells with an amperometric electrode and Fura-2 fluorescence, respectively. Phosphorylation of eNOS was measured in the same cells with phospho-specific antibodies. […] Relaxation to Nebivolol was blunted in coronary microarteries from mice deficient for the beta3-adrenoceptor (C).

[5] = system: cultured endothelial cells; assay: Calcium transients (Ca fluorescence) in cultured endothelial cells; type: cell-based; settings: for Ca signal increase after pre-treatment with nadolol: beta1-2 antagonist nadolol; for Ca signal increase after pre-treatment with bupranolol: combined beta1-2-3 antagonist bupranolol; for increase of Ca fluorescence: endothelial cells, compound alone
Method: as §1

[6] = system: rat coronary microvessels; assay: Videomicroscopy of relaxation of rat coronary microvessels; type: cell-based; settings: for max relaxation, % of PGF2alpha pre-contracted tone: at 10 μM
Method: as §1

[7] = ET-1 pre-constricted, intact endothelium
[8] = ET-1 pre-constricted, intact endothelium, listed as isoproterenol
[9] = ET-1 pre-constricted, intact endothelium, listed as BRL 37344
[10] = rat microvessels, listed as Nebivolol

## CC(C)NCC(O)c1ccc(O)c(O)c1 (stereo not drawn) [isoprenaline]
Human beta3 AR
  phosphorylation of Akt and downstream eNOS: increased phosphorylation of Akt and downstream eNOS
[1]; [7]
  relaxation, % of the maximum ET-1-evoked contraction: ~50%
  relaxation in the presence of bupranolol: blocked; also recorded: abolished
  relaxation, % of the maximum ET-1-evoked contraction, in the presence of nadolol: insensitive; also recorded: resistant
[1]; [8]
  relaxation, % of the maximum ET-1-evoked contraction: by half
  relaxation in the presence of bupranolol: fully abrogated
  relaxation, % of the maximum ET-1-evoked contraction, in the presence of nadolol: unaffected
[1]
  relaxation of vessels without functional endothelium, % of the maximum KCl-evoked contraction: 21.0±6.3%
[1]; nadolol, listed as Iso
  relaxation of de-endothelialized vessels in the presence of nadolol: abrogated
[1]; nadolol, listed as isoproterenol
  relaxation of de-endothelialized vessels in the presence of nadolol: 1.4±0.5%

## Substance P: endothelium-specific agonist (RPKPQQFFGLM; ends and bridges not checked; UniProt P20366 58-68, looked up)
[1]
  relaxation of vessels without functional endothelium, % of the maximum KCl-evoked contraction: absence of relaxation

## VEGF
Aortic rings
  angiogenic response in beta3 adrenoceptor deficient rings: angiogenic response

## NC[C@H](O)c1ccc(O)c(O)c1 [norepinephrine]
[1]; 1 micromol/l, intact endothelium, pretreated with nadolol and phentolamine
  relaxation, % of ET-1 contraction: 41.4±7%

## CCOC(=O)COc1ccc2c(c1)C[C@@H](NC[C@H](O)c1cccc(Cl)c1)CC2 [SR58611]
Aortic rings; aortic rings from C57BI6 mice treated in vitro
  new tubes formation compared to untreated controls: time-dependent increase in new tubes formation
Aortic rings
  angiogenic response in beta3 adrenoceptor deficient rings: completely lost

## C[C@H](Cc1ccc(OCC(=O)O)cc1)NC[C@H](O)c1cccc(Cl)c1 [BRL37344]
[2]
  smooth muscle membrane potential: significant hyperpolarization
[1]; ET-1 pre-constricted, L-w-nitroarginine
  relaxation of ET-1 preconstricted vessels under NO synthase inhibition: unaffected
[1]; [7]
  relaxation, % of the maximum ET-1-evoked contraction: ~50%
  relaxation in the presence of bupranolol: blocked; also recorded: abolished
  relaxation, % of the maximum ET-1-evoked contraction, in the presence of nadolol: insensitive; also recorded: resistant
[1]; [9]
  relaxation, % of the maximum ET-1-evoked contraction: 52.3±13.2%
  relaxation in the presence of bupranolol: fully abrogated
  relaxation, % of the maximum ET-1-evoked contraction, in the presence of nadolol: 54.9±16.8%
[1]; Example 2, nebivolol at 10 μM
  max relaxation, % of ET-1 pre-contracted tone: reproduced
[1]; KCl pre-constricted, L-w-nitroarginine 100 μmol/L
  relaxation of KCl-preconstricted vessels under NO synthase inhibition: totally abrogated
[1]
  relaxation of vessels without functional endothelium, % of the maximum KCl-evoked contraction: absent; also recorded: not observed; also recorded: failed to relax
  relaxation, % of the maximum KCl-evoked contraction: 15.5%
[1]; listed as BRL 37344
  relaxation, % of the maximum KCl-evoked contraction: 15.5±5.3%

## OC(CNCC(O)C1CCc2cc(F)ccc2O1)C1CCc2cc(F)ccc2O1 (stereo not drawn) [nebivolol]
[3]
  NO release in the presence of L-NAME: 26.5±4.3 nmoles/μg prot
  NO release: 117 nmol/µg protein
[3]; listed as Nebivolol
  NO release in the presence of L-NAME: sensitive to L-Name
  NO release: evoked a release of NO
eNOS
  phosphorylation of Threonine 495 on eNOS: dephosphorylated
eNOS; listed as Nebivolol
  phosphorylation of Threonine 495 on eNOS: time-dependent dephosphorylation
[4]
  relaxation in microvessels from mice genetically deficient in beta3-AR: blunted
[1]; human coronary microvessels
  dependence of relaxation on endothelium (Example 2): dependent on a functional endothelium
[1]; human coronary microvessels, NOS inhibition
  relaxation under NOS inhibition (Example 2): sensitive to NOS inhibition
[1]; human coronary microvessels, nadolol
  relaxation in the presence of nadolol (Example 2): insensitive
[5]
  Ca signal increase after pre-treatment with nadolol: no effect
  Ca signal increase after pre-treatment with bupranolol: significantly blunted
  increase of Ca fluorescence: 91.8±23.7%
[5]; listed as Nebivolol
  Ca signal increase after pre-treatment with nadolol: unchanged
  Ca signal increase after pre-treatment with bupranolol: sensitive to bupranolol
  increase of Ca fluorescence: cytosolic calcium increase
[6]
  max relaxation, % of PGF2alpha pre-contracted tone: dose-dependent-relaxation
[6]; listed as Nebivolol
  max relaxation, % of PGF2alpha pre-contracted tone: 86±6%
[6]; rat microvessels, NOS inhibition
  relaxation under NOS inhibition: sensitive to NOS inhibition
[6]; rat microvessels
  relaxation in the presence of bupranolol: sensitive to bupranolol
  relaxation in the presence of nadolol: not to nadolol
[6]; [10]
  relaxation in the presence of bupranolol: prevented
  relaxation in the presence of nadolol: unaffected
